Measurements published in ChEMBL document CHEMBL3137667, “[Drug-induced liver injury; fourteenth updated edition of the bibliographic database of liver injuries and related drugs]” (Gastroenterol Clin Biol, 2004).
Where a SMILES comes first, the peptide text is derived from it. Bridges are numbered along the chain shown (N, C = ends). [ ]: non-standard residue; d: D form. The star is where a group is joined. NMePhe(4-NMe2) = CN[C@@H](Cc1ccc(N(C)C)cc1)C(=O)O; Pip(4-oxo) = O=C1CCN[C@H](C(=O)O)C1; Picolinoyl(3-OH) = O=C(c1ncccc1O)*; Phg = N[C@H](C(=O)O)c1ccccc1; dAbu = CC[C@@H](N)C(=O)O

What was measured:
[1] = human
[2] = Highest frequency of acute liver toxicity observed during clinical trials, expressed as a percentage. [column '% AIGUE' in source]; details: human
[3] = human; remark: listed apart in the source
[4] = Times to onset, minimal and maximal, observed in the indexed observations. [column 'DELAI' in source]; details: human
[5] = human; remark: listed apart in the source
[6] = human, serum
[7] = Highest frequency of moderate liver toxicity observed during clinical trials, expressed as a percentage. [column '% BIOL' in source]; details: human
[8] = human; remark: listed apart in the source
[9] = human; remark: listed apart in the source
[10] = human; remark: listed apart in the source
[11] = human; remark: listed apart in the source
[12] = human; remark: listed apart in the source
[13] = human, serum, 4383 h
[14] = human, serum; remark: listed apart in the source
[15] = human; remark: listed apart in the source
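For Hepatotoxicity (association with vascular disease) in this document: count of indexed literature references reporting vascular liver injury in humans, e.g. peliosis hepatitis, hepatic veno-occlusive disease or Budd-Chiari syndrome.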
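For Hepatotoxicity (benign tumour) in this document: value is a count of indexed literature references citing a benign tumour confirmed by histopathology.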
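For Hepatotoxicity (choleostasis) in this document: human cholestatic liver injury, shown by histopathology or by peak ALT or AST elevation over alkaline phosphatase ratio below 2, value counts indexed literature reports.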
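For Hepatotoxicity (chronic liver disease) in this document: chronic liver injury confirmed by histopathology or persistently raised serum aminotransferase activity beyond 6 months, value given as the count of indexed literature references.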
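For Hepatotoxicity (cirrhosis) in this document: value is a count of indexed literature references reporting cirrhosis confirmed by histopathology.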
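For Hepatotoxicity (cytolytic) in this document: human cytolytic liver injury, shown by histopathology or by a ratio above 5 of peak ALT or AST elevation to alkaline phosphatase elevation, value counts indexed references.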
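For Hepatotoxicity (granulomatous hepatitis) in this document: value is a count of indexed literature references reporting granulomatous liver disease confirmed by histopathology.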
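For Hepatotoxicity (malignant tumour) in this document: malignant tumour confirmed by histopathology, value gives the count of indexed literature references reporting it.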
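For Hepatotoxicity (severe hepatitis) in this document: human clinical data: severe hepatitis, meaning potentially life-threatening liver failure or clinically observed cases, the value counts how many indexed literature references report it.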
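For Hepatotoxicity (steatosis) in this document: steatosis confirmed by histopathology, value is the count of indexed references.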

| Structure (SMILES) | Hepatotoxicity (severe hepatitis) [1] | Hepatotoxicity (acute) [2] [%] | Hepatotoxicity (cytolytic) [3] | Hepatotoxicity (time to onset) [4] | Hepatotoxicity (granulomatous hepatitis) [5] | Hepatotoxicity (moderate) [6] | Hepatotoxicity (moderate) [7] [%] | Hepatotoxicity (malignant tumour) [8] | Hepatotoxicity (association with vascular disease) [9] | Hepatotoxicity (benign tumour) [10] | Hepatotoxicity (steatosis) [11] | Hepatotoxicity (choleostasis) [12] | Hepatotoxicity (chronic liver disease) [13] | Hepatotoxicity (acute) [14] | Hepatotoxicity (cirrhosis) [15] | other results |
| --- | --- | --- | --- | --- | --- | --- | --- | --- | --- | --- | --- | --- | --- | --- | --- | --- |
| CC[C@H]1NC(=O)[C@@H](NC(=O)c2ncccc2O)[C@@H](C)OC(=O)[C@H](c2ccccc2)NC(=O)[C@@H]2CC(=O)CCN2C(=O)[C@H](Cc2ccc(N(C)C)cc2)N(C)C(=O)[C@@H]2CCCN2C1=O [PRISTINAMYCIN 1A] ({Picolinoyl(3-OH)}-T[dAbu]P[NMePhe(4-NMe2)][Pip(4-oxo)][Phg]; ester 1-C) | 0 | 0 | 1 | 1.5 months | 0 | 0 | 0 | 0 | 0 | 0 | 0 | 0 | 0 | 1 | 0 |  |
| CN(C)[C@@H]1C(O)=C(C(=O)NCNCCCC[C@H](N)C(=O)O)C(=O)[C@@]2(O)C(O)=C3C(=O)c4c(O)cccc4[C@@](C)(O)[C@H]3C[C@@H]12 [LYMECYCLINE] | 0 | 0 | 1 | 2.4 years | 0 | 0 | 0 | 0 | 0 | 0 | 0 | 0 | 0 | 1 | 0 |  |
| CNC1Cc2ccccc2N(C)c2ccccc21 (stereo not given) [METAPRAMINE] | 0 | 0 | 1 | 3 weeks - 3 months | 0 | 0 | 0 | 0 | 0 | 0 | 1 | 1 | 0 | 1 | 0 |  |
| Sc1ncnc2[nH]ncc12 [TISOPURINE] | 0 | 0 | 1 | 1.5 months | 0 | 0 | 0 | 0 | 0 | 0 | 0 | 0 | 0 | 1 | 0 |  |
| COCC(=O)Nc1c(I)c(C(=O)NCC(O)CO)c(I)c(C(=O)N(C)CC(O)CO)c1I (stereo not given) [IOPROMIDE] | 0 | 0 | 1 | < 1 days | 0 | 0 | 0 | 0 | 0 | 0 | 0 | 0 | 0 | 1 | 0 |  |
| CC#C[C@]1(O)CC[C@H]2[C@@H]3CCC4=CC(=O)CCC4=C3[C@@H](c3ccc(N(C)C)cc3)C[C@@]21C [MIFEPRISTONE] | 0 | 0 | 1 | 3 months - 5 months | 0 | 2 | 14.3 | 0 | 0 | 0 | 0 | 0 | 0 | 1 | 0 |  |
| NC(=O)CC[C@@H]1NC(=O)[C@H](Cc2ccccc2)NC(=O)[C@H](Cc2ccc(O)cc2)NC(=O)CCSSC[C@@H](C(=O)N2CCC[C@H]2C(=O)N[C@H](CCCN=C(N)N)C(=O)NCC(N)=O)NC(=O)[C@H](CC(N)=O)NC1=O [DESMOPRESSIN] | 0 | 0 | 0 | 5 days - 4 weeks | 0 | 2 | 20 | 0 | 0 | 0 | 0 | 0 | 0 | 0 | 0 |  |
| CCOC(=O)[C@H](CCc1ccccc1)N[C@@H](C)C(=O)N1[C@H](C(=O)O)C[C@H]2CCCC[C@@H]21 [TRANDOLAPRIL] | 0 | 0 | 0 | 2 weeks | 0 | 2 | 1.1 | 0 | 0 | 0 | 0 | 1 | 0 | 1 | 0 |  |
| N[C@@H]1CON=C1O [CYCLOSERINE] | 1 | 5.4 | 2 | 11 weeks | 0 | 3 | 13 | 0 | 0 | 0 | 0 | 0 | 0 | 2 | 0 |  |
| CCN(CC)CCOc1ccc(C(=C(Cl)c2ccccc2)c2ccccc2)cc1 [CLOMIPHENE] | 0 | 0 | 1 | 2 weeks - 8 years | 0 | 1 | 0 | 1 | 0 | 1 | 0 | 1 | 0 | 2 | 0 |  |
| CN(C)CCn1nnnc1SCC1=C(C(=O)O)N2C(=O)[C@@H](NC(=O)Cc3csc(N)n3)[C@H]2SC1 [CEFOTIAM] | 0 | 0.8 | 0 | 4 days | 0 | 8 | 33 | 0 | 0 | 0 | 0 | 0 | 0 | 1 | 0 |  |
| C=CCOc1ccccc1OCC(O)CNC(C)C (stereo not given) [OXPRENOLOL] |  |  |  | 1 day - 15 days |  | 1 |  | 0 | 0 | 0 | 0 |  | 0 | 1 | 0 | Hepatotoxicity (severe hepatitis) ([1]; Liver): 0; Hepatotoxicity (acute) ([2]; Liver): 0%; Hepatotoxicity (cytolytic) ([3]; Liver): 1; Hepatotoxicity (granulomatous hepatitis) ([5]; Liver): 0; Hepatotoxicity (moderate) ([7]; Liver): 0%; Hepatotoxicity (choleostasis) ([12]; Liver): 0 |
| [H]/N=C(\N/C(=N/[H])Nc1ccc(Cl)cc1)NC(C)C [PROGUANIL] | 0 | 0 | 1 | 6 weeks | 0 | 1 | 16 | 0 | 0 | 0 | 0 | 0 | 0 | 1 | 0 |  |
| CCCC(C)(COC(N)=O)COC(N)=O [MEPROBAMATE] | 0 | 0 | 0 | 2 weeks - 6 months | 0 | 0 | 0 | 0 | 0 | 0 | 0 | 1 | 0 | 2 | 0 |  |
